The values below come from US6376670B1, “Quinoline-indole antimicrobial agents, uses and compositions related thereto” (Sepracor Inc., priority 1997, dated 2002).

Assay in all cases: Determination of MIC values (BHI broth, 96 well microtiter plate)
Assay type in all cases: cell-based

For one test, the system named is Streptococcus pneumoniae. Particulars: Streptococcus pneumoniae; BHI broth, 37° C., about 16 hours; read-out: MIC S. pneu. The procedure, abridged: (§1)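 Here, each test series spans final concentrations of 25 to 0.39 µg/mL in BHI broth, with DMSO as diluent. Plates seeded at 10^5–10^6 cells/mL are kept at 37° C and approx. 7-10% CO2 for about 16 hours before growth is scored.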

For test [1], the system named is methicillin-resistant Staphylococcus aureus (MRSA). Particulars: Staphylococcus aureus, MRSA, 16 h, BHI broth, 37° C., about 16 hours; read-out: MIC MRSA. A digest of the protocol: as §1
Test [2] concerns vancomycin-resistant Enterococcus spp. (VRE). Particulars: BHI broth, 37° C., about 16 hours; for MIC: Enterococcus, VRE, 16 h, read-out: MIC VREF. A digest of the protocol:
as §1

One may read the MIC as the smallest concentration in the dilution series that meets the test's criterion for growth inhibition.

≈ marks a conversion by molar mass, not a printed value.

Regarding `COc1ccc2[nH]c(C)c(-c3ccc4cc(C)ccc4n3)c2c1` [Example 434], the MIC (in the test with Streptococcus pneumoniae; in test [1]; in test [2]) was above 25 µg/mL in each case.

On to `Cc1ccc2nc(-c3c[nH]c4cc(F)ccc34)ccc2c1` [Example 435], for which the MIC (with Streptococcus pneumoniae; in test [1]; in test [2]) was above 25 µg/mL in each case.

For the molecule `Cc1ccc2nc(-c3c[nH]c4cc(Cl)ccc34)ccc2c1` [Example 436], the MIC is below 7 µg/mL in the test on Streptococcus pneumoniae, below 7 µg/mL in test [1] and above 25 µg/mL in test [2].

For `Cc1ccc2nc(-c3c(C)[nH]c4ccc(Cl)cc34)ccc2c1` [Example 437], the MIC in the test on Streptococcus pneumoniae was below 7 µg/mL; in test [1], below 7 µg/mL; in test [2], above 25 µg/mL.

In the case of `COc1ccc2[nH]cc(-c3ccc4cc(C)ccc4n3)c2c1` [Example 438], the MIC (with Streptococcus pneumoniae; in test [1]; in test [2]) was above 25 µg/mL each time.

`Cc1ccc2nc(-c3c(C)[nH]c4ccc(C)cc34)ccc2c1` [Example 439]: the MIC (with Streptococcus pneumoniae; in test [1]; in test [2]) was above 25 µg/mL each time.

Consider `Cc1ccc2nc(-c3c[nH]c4ccc(C)cc34)ccc2c1` [Example 440], for which the MIC was below 25 µg/mL with Streptococcus pneumoniae, above 25 µg/mL in test [1] and above 25 µg/mL in test [2].

On to `Cc1ccc2nc(-c3c[nH]c4ccc(Cl)cc34)ccc2c1` [Example 441], for which the MIC (with Streptococcus pneumoniae; in test [1]; in test [2]) was above 25 µg/mL each time.

As for `OCc1cc(-c2c[nH]c3ccc(Br)cc23)nc2ccccc12` [Example 442], the MIC was below 7 µg/mL in the test on Streptococcus pneumoniae, below 7 µg/mL in test [1] and below 25 µg/mL in test [2].

Turning to `OCc1cc(-c2c[nH]c3ccc(Br)cc23)nc2ccc(F)cc12` [Example 443], the MIC is below 7 µg/mL in the test on Streptococcus pneumoniae, below 7 µg/mL in test [1] and below 25 µg/mL in test [2].

For the molecule `OCc1cc(-c2c[nH]c3ccc(Br)cc23)nc2c(F)cccc12` [Example 444], the MIC in the test on Streptococcus pneumoniae is below 7 µg/mL; in test [1], below 7 µg/mL; in test [2], below 25 µg/mL.

Consider `OCc1cc(-c2c[nH]c3ccc(Br)cc23)nc2ccc(Br)cc12` [Example 445], for which the MIC (in the test with Streptococcus pneumoniae; in test [1]; in test [2]) was below 7 µg/mL each time.

For the molecule `OCc1cc(-c2c[nH]c3ccc(Br)cc23)nc2cc(F)ccc12` [Example 446], the MIC (with Streptococcus pneumoniae; in test [1]) was below 7 µg/mL throughout. Also, the “MIC VREF” value in test [2] was below 7 µg/mL.

As to `Clc1ccc2nc(-c3c[nH]c4ccc(Br)cc34)c3c(c2c1)OCC3` [Example 448], the MIC in the test with Streptococcus pneumoniae was below 25 µg/mL; in test [1], below 7 µg/mL; in test [2] it was above 25 µg/mL.

As for `COc1ccc2nc(-c3c(C)[nH]c4ccccc34)ccc2c1` [Example 449], the MIC (in the test with Streptococcus pneumoniae; in test [1]; in test [2]) was above 25 µg/mL throughout.

Turning to `COc1ccc2nc(-c3c[nH]c4ccc(OCc5ccccc5)cc34)ccc2c1` [Example 450], the MIC (in the test on Streptococcus pneumoniae; in test [1]; in test [2]) was above 25 µg/mL throughout.

`Clc1cc(-c2c[nH]c3ccccc23)nc2ccccc12` [Example 451]: the MIC in the test on Streptococcus pneumoniae was below 7 µg/mL; in test [1] it was below 7 µg/mL; in test [2] it was above 25 µg/mL.

As for `OCc1cc(-c2c[nH]c3ccc(Br)cc23)nc2ccc(I)cc12` [Example 452], the MIC was below 7 µg/mL in the test on Streptococcus pneumoniae, below 7 µg/mL in test [1] and above 25 µg/mL in test [2].

Consider `OCc1cc(-c2c[nH]c3ccc(Br)cc23)nc2cc(I)ccc12` [Example 453], for which the MIC (with Streptococcus pneumoniae; in test [1]; in test [2]) was below 7 µg/mL each time.

Take `OCc1cc(-c2c[nH]c3ccc(Br)cc23)nc2c(I)cccc12` [Example 454]: the MIC (in the test on Streptococcus pneumoniae; in test [1]; in test [2]) was below 7 µg/mL each time.

Consider `OCc1cc(-c2c[nH]c3ccc(Br)cc23)nc2ccc(Cl)cc12` [Example 455], for which the MIC (in the test with Streptococcus pneumoniae; in test [1]) was below 7 µg/mL each time. Also, the “MIC VREF” value in test [2] is below 7 µg/mL.

For `OCc1cc(-c2c[nH]c3ccc(Br)cc23)nc2cc(Cl)ccc12` [Example 456], the MIC (in the test with Streptococcus pneumoniae; in test [1]) was below 7 µg/mL throughout. Also, the “MIC VREF” value in test [2] was below 7 µg/mL.

With `OCc1cc(-c2c[nH]c3ccc(Br)cc23)nc2c(Cl)cccc12` [Example 457], the MIC (in the test on Streptococcus pneumoniae; in test [1]; in test [2]) was below 7 µg/mL each time.

Take `OCc1cc(-c2c[nH]c3ccc(Br)cc23)nc2c(Br)cccc12` [Example 458]: the MIC (in the test with Streptococcus pneumoniae; in test [1]; in test [2]) was below 7 µg/mL throughout.

For the molecule `OCc1[nH]c2ccccc2c1-c1cc(Cl)c2ccccc2n1` [Example 459], the MIC (in the test with Streptococcus pneumoniae; in test [1]; in test [2]) was above 25 µg/mL throughout.

Regarding `Clc1ccc2c(Cl)cc(-c3c[nH]c4ccc(Br)cc34)nc2c1` [Example 460], the MIC (in the test with Streptococcus pneumoniae; in test [1]; in test [2]) was below 7 µg/mL in each case.

In the case of `N#Cc1ccc2[nH]cc(-c3cc(Cl)c4ccc(Cl)cc4n3)c2c1` [Example 462], the MIC (in the test on Streptococcus pneumoniae; in test [1]; in test [2]) was above 25 µg/mL each time.

On to `Clc1ccc2c(Cl)cc(-c3c[nH]c4cc(Cl)ccc34)nc2c1` [Example 463], for which the values for the MIC (in the test with Streptococcus pneumoniae; in test [1]; in test [2]) were 25 µg/mL (≈ 71.9 µM), 25 µg/mL (≈ 71.9 µM) and above 25 µg/mL, respectively.

Consider `COc1ccc2[nH]cc(-c3cc(Cl)c4ccc(Cl)cc4n3)c2c1` [Example 464], for which the minimum inhibitory concentration (MIC) was below 7 µg/mL in the test on Streptococcus pneumoniae, below 7 µg/mL in test [1] and above 25 µg/mL in test [2].

In the case of `Cc1[nH]c2ccc(Cl)cc2c1-c1cc(Cl)c2ccccc2n1` [Example 465], the MIC with Streptococcus pneumoniae is below 7 µg/mL; in test [1], below 7 µg/mL; in test [2], below 25 µg/mL.

Regarding `Cc1ccc2nc(-c3c(C)[nH]c4ccccc34)ccc2c1` [Example 466], the MIC with Streptococcus pneumoniae was below 25 µg/mL; in test [1], above 25 µg/mL; in test [2] it was above 25 µg/mL.

As to `Cc1ccc2nc(-c3c[nH]c4c(C)cccc34)ccc2c1` [Example 467], the MIC (in the test with Streptococcus pneumoniae; in test [1]; in test [2]) was above 25 µg/mL each time.

Regarding `Cc1ccc2nc(-c3c[nH]c4ccc(O)cc34)ccc2c1` [Example 468], the MIC is above 25 µg/mL in the test with Streptococcus pneumoniae, 25 µg/mL (≈ 91.1 µM) in test [1] and above 25 µg/mL in test [2].

As to `Cc1ccc2nc(-c3c[nH]c4ccc(OCc5ccccc5)cc34)ccc2c1` [Example 469], the results for the MIC (in the test with Streptococcus pneumoniae; in test [1]; in test [2]) were below 7 µg/mL, below 7 µg/mL and above 25 µg/mL, respectively.

In the case of `OCc1[nH]c2ccc(Cl)cc2c1-c1cc(Cl)c2ccccc2n1` [Example 470], the MIC (with Streptococcus pneumoniae; in test [1]; in test [2]) was above 25 µg/mL each time.

Take `Cc1[nH]c2ccccc2c1-c1ccc2cccc(C)c2n1` [Example 472]: the figures for the MIC (in the test with Streptococcus pneumoniae; in test [1]; in test [2]) were below 25 µg/mL, below 25 µg/mL and above 25 µg/mL, respectively.

As for `Cc1[nH]c2ccc(Cl)cc2c1-c1cc(Cl)c2ccc(Cl)cc2n1` [Example 473], the MIC in the test with Streptococcus pneumoniae is below 7 µg/mL; in test [1], below 7 µg/mL; in test [2], below 25 µg/mL.
